Source: patent EP4667464A1 (Cyrus Therapeutics Inc., priority 2023, dated 2024)
pIC50: −log10 of the molar value. Like-named read-outs stand apart in the source and are kept apart here.

Assays:
[1] = target: T1, SOS1 (Homo sapiens, UniProt Q07889); assay: SOS-catalyzed nucleotide exchange assay (HTRF, SOS1-mediated GTP loading of KRAS G12D); type: biochemical
T1 construct: HIS-SOS1cat (160 nM; Cytoskeleton, US); His (N); purchased Cytoskeleton
T1 sequence (Q07889 564-1049 limits assumed): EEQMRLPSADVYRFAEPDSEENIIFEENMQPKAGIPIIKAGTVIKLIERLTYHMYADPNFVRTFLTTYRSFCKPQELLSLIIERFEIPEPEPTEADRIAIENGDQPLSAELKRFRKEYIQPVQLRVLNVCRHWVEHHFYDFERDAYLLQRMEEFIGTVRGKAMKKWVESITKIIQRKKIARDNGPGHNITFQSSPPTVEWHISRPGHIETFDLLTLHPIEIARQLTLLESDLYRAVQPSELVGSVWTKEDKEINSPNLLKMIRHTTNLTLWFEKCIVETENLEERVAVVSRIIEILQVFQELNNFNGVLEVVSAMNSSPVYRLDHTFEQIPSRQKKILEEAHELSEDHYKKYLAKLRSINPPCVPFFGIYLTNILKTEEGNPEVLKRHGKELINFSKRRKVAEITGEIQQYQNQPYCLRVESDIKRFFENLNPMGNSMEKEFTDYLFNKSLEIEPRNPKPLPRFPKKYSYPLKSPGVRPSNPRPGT

[2] = target: T2, KRAS G12C::SOS1 (Homo sapiens, UniProt Q07889); assay: KRAS G12C::SOS1 protein-protein interaction (PPI) inhibition assay (HTRF); type: binding
T2 construct: purchased CISBIO 64KRASG12PEH
T2 sequence (Q07889 1-1333): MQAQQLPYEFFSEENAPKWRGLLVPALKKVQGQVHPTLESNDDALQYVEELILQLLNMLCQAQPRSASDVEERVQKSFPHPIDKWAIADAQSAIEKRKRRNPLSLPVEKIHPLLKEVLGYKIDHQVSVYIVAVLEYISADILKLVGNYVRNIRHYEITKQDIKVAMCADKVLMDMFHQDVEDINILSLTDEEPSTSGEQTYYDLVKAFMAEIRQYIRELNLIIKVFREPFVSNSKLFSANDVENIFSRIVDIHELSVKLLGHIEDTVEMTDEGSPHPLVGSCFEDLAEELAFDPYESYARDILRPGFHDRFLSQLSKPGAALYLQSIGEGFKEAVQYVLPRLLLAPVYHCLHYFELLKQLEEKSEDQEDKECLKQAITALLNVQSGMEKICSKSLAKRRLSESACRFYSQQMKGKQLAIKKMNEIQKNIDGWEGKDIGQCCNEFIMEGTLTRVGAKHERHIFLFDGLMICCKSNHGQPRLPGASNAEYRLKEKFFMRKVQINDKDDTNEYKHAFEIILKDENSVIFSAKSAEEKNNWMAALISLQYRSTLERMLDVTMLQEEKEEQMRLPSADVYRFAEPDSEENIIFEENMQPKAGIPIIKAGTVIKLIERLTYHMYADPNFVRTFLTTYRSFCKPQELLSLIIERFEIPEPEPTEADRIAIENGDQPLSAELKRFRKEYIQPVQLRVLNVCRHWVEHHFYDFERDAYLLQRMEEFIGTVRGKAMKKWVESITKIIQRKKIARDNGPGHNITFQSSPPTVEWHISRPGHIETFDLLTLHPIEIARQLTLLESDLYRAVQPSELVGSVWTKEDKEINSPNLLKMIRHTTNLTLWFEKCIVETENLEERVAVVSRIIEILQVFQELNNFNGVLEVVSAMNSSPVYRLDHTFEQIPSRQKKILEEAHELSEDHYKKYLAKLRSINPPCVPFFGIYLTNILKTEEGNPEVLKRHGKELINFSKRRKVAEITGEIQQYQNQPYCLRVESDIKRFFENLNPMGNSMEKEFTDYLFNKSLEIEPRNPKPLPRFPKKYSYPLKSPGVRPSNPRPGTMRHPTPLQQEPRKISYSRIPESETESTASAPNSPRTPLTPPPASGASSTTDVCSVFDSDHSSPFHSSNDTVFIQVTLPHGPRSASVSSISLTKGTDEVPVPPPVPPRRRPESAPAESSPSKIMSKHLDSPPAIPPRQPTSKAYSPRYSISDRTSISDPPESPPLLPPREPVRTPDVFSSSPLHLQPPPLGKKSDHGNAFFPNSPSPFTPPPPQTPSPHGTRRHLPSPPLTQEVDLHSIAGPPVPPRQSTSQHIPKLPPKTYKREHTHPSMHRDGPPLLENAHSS
Method in brief: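 Compounds, at eight 3-fold dilutions from 3 µM, were mixed with GTP-loaded Tag1-KRAS G12C, Tag2-SOS1 and a terbium-cryptate donor plus XL665 acceptor antibody pair. After 2 h at room temperature, time-resolved FRET reported the KRAS–SOS1 interaction.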

[3] = system: lung cancer cell line NCI-H358 having the KRAS G12C variant; assay: Cancer cell growth inhibition, 3D spheroids (CellTiter-Glo 3D); type: cell-based; details: read-out: H358 cell viability
Protocol: Thereafter, the plate with the cells cultured was adapted to room temperature for 10 minutes, and then 50 µL of CellTiter-Glo® 3D Cell Viability Assay (PROMEGA, G9683) solution was dispensed, and reacted on a horizontal stirrer at a speed of 300 RPM for 30 minutes to induce the cell lysis. […] Thereafter, based on the measured values, the degree of cell growth in the well treated with each compound was calculated when the final cell density value of the well not treated with the test substance was set to 100%.

[4] = GST-KRAS G12D, HIS-SOS1cat, compound 128 pM to 10 µM, read-out: SOS-catalyzed nucleotide exchange assay
[5] = 8 concentrations from 3 µM, three replicates, read-out: KRAS G12C::SOS1 PPI
[6] = Homo sapiens, NCI-H358, 120 h, 3D spheroids, 0.002-10 µM, 5 days

Molecule `C[C@@H](NC(=O)c1ccc(=O)n(-c2cc(-c3cnnn3C3CC3)cnc2F)c1)c1cccc(C(F)(F)F)c1F` [Example 1-67, (R)-5'-(1-cyclopropyl-1H-1,2,3-triazol-5-yl)-2'-fluoro-N-(1-(2-fluoro-3-(trifluoromethyl)phenyl)ethyl)-2-oxo-2H-[1,3'-bipyridine]-5-carboxamide] has a pIC50 [1, 4] of over 7.30, a pIC50 [2, 5] of 6.82 to 7.30 and a pIC50 [3, 6] of over 6.00.
Work on `[2H]C([2H])([2H])c1cc(C(=O)N[C@H](C)c2cccc(C(F)F)c2F)nn(-c2cncc(-c3cnnn3C)c2)c1=O` [Example 7-2, N-{(R)-1-[3-(difluoromethyl)-2-fluorophenyl]ethyl}-5-[methyl-trideuterio]-1-[5-(1-methyl-1H-1,2,3-triazol-5-yl)-3-pyridyl]-6-oxo-1,6-dihydropyridazine-3-carboxamide] yielded a pIC50 [1, 4] of 6.82 to 7.30, a pIC50 [2, 5] of over 7.30 and a pIC50 [3, 6] of over 6.00.
`Cc1cc(C(=O)N[C@H](C)c2cc(N)cc(C(F)F)c2)nn(-c2cncc(-c3cnnn3C)c2)c1=O` [Example 2-7, N-[(1R)-1-[3-amino-5-(difluoromethyl)phenyl]ethyl]-5-methyl-1-[5-(3-methyltriazol-4-yl)-3-pyridyl]-6-oxo-pyridazine-3-carboxamide] showed a pIC50 [1, 4] of over 7.30, a pIC50 [2, 5] of over 7.30 and a pIC50 [3, 6] of under 5.52.
For “N-[(1R)-1-[3-(1,1-difluoro-2-hydroxy-ethyl)-2-fluoro-phenyl]ethyl]-1-[5-(2-methylpyrazol-3-yl)-3-pyridyl]-6-oxo-pyridazine-3-carboxamide [Example 1-16]”, the pIC50 [1, 4] was 6.82 to 7.30, the pIC50 [2, 5] was 6.82 to 7.30 and the pIC50 ([3]; 3D spheroids, 0.002-10 µM, 5 days) was over 6.00.
In the case of `C[C@@H](NC(=O)c1ccc(=O)n(-c2cncc(-c3cnnn3C)c2)n1)c1cccc(C(F)(F)CO)c1F` [Example 1, N-[(1R)-1-[3-(1,1-difluoro-2-hydroxy-ethyl)-2-fluoro-phenyl]ethyl]-1-[5-(3-methyltriazol-4-yl)-3-pyridyl]-6-oxo-pyridazine-3-carboxamide], the pIC50 [1] was over 7.30, the pIC50 [2] was over 7.30 and the pIC50 ([3]; Homo sapiens, NCI-H358, 120 h) was over 6.00.
Work on `CC(C)n1nncc1-c1cncc(-n2nc(C(=O)N[C@H](C)c3cccc(C(F)(F)CO)c3F)ccc2=O)c1` [Example 1-52, N-[(1R)-1-[3-(1,1-difluoro-2-hydroxy-ethyl)-2-fluoro-phenyl]ethyl]-1-[5-(1-isopropyl-1H-1,2,3-triazol-5-yl)-3-pyridyl]-6-oxo-pyridazine-3-carboxamide] yielded a pIC50 [1, 4] of over 7.30, a pIC50 [2, 5] of 6.82 to 7.30 and a pIC50 [3, 6] of over 6.00.
Work on `C[C@@H](NC(=O)c1cc(C#N)c(=O)n(-c2cncc(-c3cnnn3C)c2)n1)c1cccc(C(F)(F)F)c1F` [Example 3-2, 5-cyano-N-{(1R)-1-[2-fluoro-3-(trifluoromethyl)phenyl]ethyl}-1-[5-(1-methyl-1H-1,2,3-triazol-5-yl)-3-pyridyl]-6-oxo-1,6-dihydropyridazine-3-carboxamide] yielded a pIC50 [1, 4] of 6.82 to 7.30, a pIC50 [2, 5] of 6.82 to 7.30 and a pIC50 [3, 6] of over 6.00.
With `C[C@@H](NC(=O)c1cc(CO)c(=O)n(-c2cncc(-c3cnnn3C)c2)n1)c1cccc(C(F)(F)F)c1F` [Example 1-61, N-{(R)-1-[2-fluoro-3-(trifluoromethyl)phenyl]ethyl}-5-(hydroxymethyl)-1-[5-(1-methyl-1H-1,2,3-triazol-5-yl)-3-pyridyl]-6-oxo-1,6-dihydropyridazine-3-carboxamide] the pIC50 [1, 4] was 6.82 to 7.30, the pIC50 [2, 5] was over 7.30 and the pIC50 [3, 6] was over 6.00.
`CCn1nncc1-c1cncc(-n2nc(C(=O)N[C@H](C)c3cccc(C(F)(F)F)c3F)cc(CO)c2=O)c1` [Example 6-4, N-{ (R)-1-[2-fluoro-3-(trifluoromethyl)phenyl]ethyl}-1-[5-(1-ethyl-1H-1,2,3-triazol-5-yl)-3-pyridyl]-5-(hydroxymethyl)-6-oxo-1,6-dihydropyridazine-3-carboxamide] showed a pIC50 [1, 4] of over 7.30, a pIC50 [2, 5] of 6.82 to 7.30 and a pIC50 [3, 6] of over 6.00.
In the case of `Cc1c([C@@H](C)NC(=O)c2cc(C)c(=O)n(-c3cncc(-c4cnnn4C)c3)n2)cc(N)cc1C(F)(F)F` [Example 2-6, N-[(1R)-1-[5-amino-2-methyl-3-(trifluoromethyl)phenyl]ethyl]-5-methyl-1-[5-(3-methyltriazol-4-yl)-3-pyridyl]-6-oxo-pyridazine-3-carboxamide], the pIC50 [1, 4] was over 7.30, the pIC50 [2, 5] was over 7.30 and the pIC50 [3, 6] was over 6.00.
With `CC(=O)c1cc(C(=O)N[C@H](C)c2cccc(C(F)(F)F)c2F)nn(-c2cncc(-c3cnnn3C)c2)c1=O` [Example 1-62, N-{(R)-1-[2-fluoro-3-(trifluoromethyl)phenyl]ethyl}-5-acetyl-1-[5-(1-methyl-1H-1,2,3-triazol-5-yl)-3-pyridyl]-6-oxo-1,6-dihydropyridazine-3-carboxamide] the pIC50 [1, 4] was 6.82 to 7.30, the pIC50 [2, 5] was over 7.30 and the pIC50 [3, 6] was over 6.00.
With `[2H]C([2H])([2H])n1nncc1-c1cncc(-n2nc(C(=O)N[C@H](C)c3cc(N)cc(C(F)F)c3)ccc2=O)c1` [Example 1-4, N-[(1R)-1-[3-amino-5-(difluoromethyl)phenyl]ethyl]-6-oxo-1-[5-[3-(trideuteriomethyl)triazol-4-yl]-3-pyridyl]pyridazine-3-carboxamide] the pIC50 [1, 4] was 6.82 to 7.30, the pIC50 [2, 5] was over 7.30 and the pIC50 [3, 6] was under 5.52.
`C[C@@H](NC(=O)c1ccc(=O)n(-c2cnc(F)c(-c3cnnn3C)c2)n1)c1cccc(C(F)(F)F)c1F` [Example 6] gave a pIC50 [1] of 6.82 to 7.30, a pIC50 [2] of 6.82 to 7.30 and a pIC50 ([3]; Homo sapiens, NCI-H358, 120 h) of over 6.00.
`C[C@@H](NC(=O)c1ccc(=O)n(-c2cncc(-c3cnnn3C)c2)n1)c1cccc(C2(C)CC2)c1F` [Example 1-33, N-[(1R)-1-[2-fluoro-3-(1-methylcyclopropyl)phenyl]ethyl]-1-[5-(3-methyltriazol-4-yl)-3-pyridyl]-6-oxo-pyridazine-3-carboxamide] showed a pIC50 [2, 5] of under 6.82 and a pIC50 [3, 6] of under 5.52.
Molecule `[2H]C([2H])([2H])n1nncc1-c1cncc(-n2nc(C(=O)N[C@H](C)c3cccc(C(F)(F)F)c3F)ccc2=O)c1` [Example 1-5, N-[(1R)-1-[2-fluoro-3-(trifluoromethyl)phenyl]ethyl]-6-oxo-1-[5-[3-(trideuteriomethyl)triazol-4-yl]-3-pyridyl]pyridazine-3-carboxamide] has a pIC50 [3, 6] of over 6.00.
Work on `[2H]C([2H])([2H])[C@@]([2H])(NC(=O)c1ccc(=O)n(-c2cncc(-c3cnnn3C)c2)n1)c1cccc(C(F)(F)F)c1F` [Example 22, (R)-N-(1-(2-fluoro-3-(trifluoromethyl)phenyl)ethyl-1,2,2,2-tetradeuterio)-1-(5-(1-methyl-1H-1,2,3-triazol-5-yl)pyridin-3-yl)-6-oxo-1,6-dihydropyridazine-3-carboxamide] yielded a pIC50 [3, 6] of over 6.00.
